Data from USRE46792E1, “Oxazole compound and pharmaceutical composition” (Otsuka Pharmaceutical Co., Ltd., priority 2005, dated 2018).

The compounds below were run against human PDE4D3 (PDE4D) (Homo sapiens (Human), UniProt Q08499) (assay: Phosphodiesterase (PDE)4 inhibitory activity evaluation test ([3H]cAMP hydrolysis by PDE4D enzyme solution)). Conditions: recombinant human PDE4D3 expressed in COS-7 cells; [3H]cAMP substrate; 10 min at 30° C.; 2% DMSO.
human PDE4D3 (PDE4D), sequence (Q08499 other isoform, or with tags, fused parts or gaps): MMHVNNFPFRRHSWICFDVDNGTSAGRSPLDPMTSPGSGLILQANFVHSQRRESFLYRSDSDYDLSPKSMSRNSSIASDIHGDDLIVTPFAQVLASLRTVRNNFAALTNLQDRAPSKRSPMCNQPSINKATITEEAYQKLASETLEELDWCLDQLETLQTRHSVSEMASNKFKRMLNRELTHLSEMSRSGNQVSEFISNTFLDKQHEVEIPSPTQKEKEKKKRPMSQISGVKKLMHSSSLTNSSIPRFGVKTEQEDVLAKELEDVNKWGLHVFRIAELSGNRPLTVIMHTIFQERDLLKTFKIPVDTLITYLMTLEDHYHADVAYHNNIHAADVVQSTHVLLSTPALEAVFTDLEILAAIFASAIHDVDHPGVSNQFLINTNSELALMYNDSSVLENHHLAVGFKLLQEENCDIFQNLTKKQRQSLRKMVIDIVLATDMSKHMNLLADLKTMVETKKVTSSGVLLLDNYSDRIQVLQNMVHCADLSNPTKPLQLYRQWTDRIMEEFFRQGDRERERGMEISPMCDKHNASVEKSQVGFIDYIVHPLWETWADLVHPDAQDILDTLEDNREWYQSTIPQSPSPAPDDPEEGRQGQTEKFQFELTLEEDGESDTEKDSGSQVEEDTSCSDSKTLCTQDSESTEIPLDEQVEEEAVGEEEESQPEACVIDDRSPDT
Format: biochemical
From the text: Phosphodiesterase (PDE)4 Inhibitory Activity Evaluation Test
(1) Large Scale Plasmid Preparation
Plasmid containing genes (HPDE4D) coding for human PDE4D3 cDNA (stored in Otsuka America Pharmaceutical, Inc., Maryland Research Laboratories) was transformed in E. coli, cultured on a large scale, and purified using an EndoFree™ Plasmid Maxi Kit (Qiagen).
(2) Abundant Expression and Purification of PDE4D
COS-7 cells derived from African green monkey kidneys were passage cultured in D-MEM media containing 100 units/ml penicillin, 100 μg/ml streptomycin, and 10% FBS. The cells were transfected with the plasmid prepared in (1) above using Lipofectamine™ 2000 (hereinafter referred to as “LF2000”, Invitrogen), following the manufacturer's protocol. The COS-7 cells were inoculated in a 10 cm culture dish on the previous day so as to be 90% confluent on the day of transfection. Culture dishes each containing a plasmid solution (solution A) in which 24 μg of plasmid was diluted in 1.5 ml Opti-MEM I Reduced Serum Medium (Invitrogen) and an LF2000 solution (solution B) in which 60 μl of LF2000 was diluted in 1.5 ml Opti-MEM I Reduced Serum Medium were separately allowed to stand for 5 minutes at room temperature. Solutions A and B were then mixed and the mixture was allowed to stand for 20 minutes at room temperature. The mixture was added to the cultured cells, and incubated at 37° C. (5% CO2) overnight. On the following day, the medium was replaced, and the mixture was further incubated overnight to harvest the cells in the following manner. The cells were washed with PBS (Sigma) once, and 10 ml of a Trypsin-EDTA solution (Sigma) was added to each culture dish. After the solution was distributed to each of the culture dishes, the cells were detached, and the dishes were allowed to stand for about 5 minutes at 37° C. The detached cells from the dishes were suspended in media, collected into centrifuge tubes, and centrifuged at 1200 rpm for 5 minutes at 4° C., and supernatants were removed. The cells were further washed with PBS, and stored at −80° C. KHEM buffer (100 mM Hepes, 50 mM KCl, 10 mM EGTA, 1.92 mM MgCl2, pH 7.4) containing 1 mM DTT, 1 μg/ml antipain, 1 μg/ml aprotinin, 1 μg/ml leupeptin, 1 μg/ml pepstatin A, 157 μg/ml benzamidine, and 120 μg/ml Pefabloc SC was added to the stored cells, and the contents were moved to a glass homogenizer to be homogenized on ice. The cell suspension was centrifuged at 1000 rpm for 5 minutes at 4° C., and the supernatant was further centrifuged at 14000 rpm for one hour. After centrifugation, the supernatant was dispensed into new tubes as PDE4D enzyme solutions, and stored in a deep freezer.
(3) Determination on Dilution Ratio of PDE4D Enzyme Solutions
The PDE4D enzyme solutions prepared in (2) above were dissolved in 20 mM Tris-HCl solution (pH 7.4) to give 10-, 25-, 50-, 100-, 200-, 400-, and 800-fold dilutions of the enzyme solutions. PDE4D activities were measured according to (4) below. The percentage of catalyzed cAMP to total cAMP was calculated, and such a dilution, in which the percentage was between 10% and 30%, was adopted in the inhibitory study below.
(4) Measurement of PDE4D Inhibitory Activity
Necessary amounts of test compounds were weighed, and 100% dimethylsulfoxide (DMSO) was added thereto to adjust the concentration to 10 mM. The solutions were stored in a freezer as stock solutions of each test compound. After being thawed when required, the solutions were diluted 20-fold with 100% DMSO to give a 500 μM concentration. Further, 10-fold serial dilutions were made with 100% DMSO to prepare test compounds of different concentrations. 2 μl of solutions containing one of each of the test compound were separately added into 1.2 ml tubes in which 23 μl of 20 mM Tris-HCl (pH 7.4) had been placed beforehand. […]
`C=CCOc1cc(-c2nc(CCC(=O)c3ncccc3C)co2)ccc1OC(F)F` [Example 330, 3-[2-(3-allyloxy-4-difluoromethoxyphenyl)oxazol-4-yl]-1-(3-methylpyridin-2-yl)propan-1-one] gave an IC50 of less than 50 nM. `CCCOc1cccnc1C(=O)NCc1coc(-c2ccc(OC)c(OCC3CC3)c2)n1` [Example 61] gave an IC50 of less than 50 nM. Work on `COc1ccc(-c2nc(CCC(=O)c3ncccc3C)co2)cc1OC1Cc2ccccc2C1` [Example 159, 3-{2-[3-(indan-2-yloxy)-4-methoxyphenyl]oxazol-4-yl}-1-(3-methylpyridin-2-yl)propan-1-one] yielded an IC50 of less than 50 nM. `CCOc1cc(-c2nc(CCC(=O)c3ccccc3OCC)co2)ccc1OC(F)F` [Example 334, 3-[2-(4-difluoromethoxy-3-ethoxyphenyl)oxazol-4-yl]-1-(2-ethoxyphenyl)propan-1-one] showed an IC50 of less than 50 nM. `C=CCOc1cc(-c2nc(CCC(=O)c3ncccc3C)co2)ccc1OC` [Example 140, 3-[2-(3-allyloxy-4-methoxyphenyl)oxazol-4-yl]-1-(3-methylpyridin-2-yl)propan-1-one] showed an IC50 of less than 50 nM. With `CCOc1ccccc1C(=O)CCc1coc(-c2ccc(OC(F)F)c(OCC3CC3)c2)n1` [Example 336, 3-[2-(3-cyclopropylmethoxy-4-difluoromethoxyphenyl)oxazol-4-yl]-1-(2-ethoxyphenyl)propan-1-one] the IC50 was less than 50 nM. Work on `C=CCOc1cc(-c2nc(CCC(=O)c3ccccc3OC)co2)ccc1OC` [Example 174, 3-[2-(3-allyloxy-4-methoxyphenyl)oxazol-4-yl]-1-(2-methoxyphenyl)propan-1-one] yielded an IC50 of less than 50 nM. `CCOc1ccc(-c2nc(CCC(=O)c3ccccc3OCC(F)F)co2)cc1OCC` [Example 290, 3-[2-(3,4-diethoxyphenyl)oxazol-4-yl]-1-[2-(2,2-difluoroethoxy)phenyl]propan-1-one] showed an IC50 of less than 50 nM. `Cc1cccnc1C(=O)NCc1coc(-c2ccc(OC(F)F)c(OCC3CC3)c2)n1` [Example 98, N-[2-(3-cyclopropylmethoxy-4-difluoromethoxyphenyl)oxazol-4-ylmethyl]-3-methylpicolinamide] showed an IC50 of less than 50 nM. `CCOc1ccccc1C(=O)CCc1coc(-c2ccc(OC)c(OC(C)C)c2)n1` [Example 111, 1-(2-ethoxyphenyl)-3-[2-(3-isopropoxy-4-methoxyphenyl)oxazol-4-yl]propan-1-one] gave an IC50 of less than 50 nM. With `COc1ccc(-c2nc(CNC(=O)c3ncccc3C)co2)cc1OCC1CC1` [Example 36, N-[2-(3-cyclopropylmethoxy-4-methoxyphenyl)oxazol-4-ylmethyl]-3-methylpicolinamide] the IC50 was less than 50 nM. In the case of `CCCOc1ccccc1C(=O)CCc1coc(-c2ccc(OC)c(OCC)c2)n1` [Example 195, 3-[2-(3-ethoxy-4-methoxyphenyl)oxazol-4-yl]-1-(2-propoxyphenyl)propan-1-one], the IC50 is reported as less than 50 nM. In the case of `CCOc1ccc(-c2nc(CCC(=O)c3ccccc3OCC)co2)cc1OCC` [Example 182, 3-[2-(3,4-diethoxyphenyl)oxazol-4-yl]-1-(2-ethoxyphenyl)propan-1-one], the IC50 is reported as less than 50 nM. `CCOc1ccccc1C(=O)NCc1coc(-c2ccc(OC(F)F)c(OCC(C)C)c2)n1` [Example 348, N-[2-(4-difluoromethoxy-3-isobutoxyphenyl)oxazol-4-ylmethyl]-2-ethoxybenzamide] gave an IC50 of less than 50 nM. For `Cc1cccnc1C(=O)CCc1coc(-c2ccc(OC(F)F)c(OC(C)C)c2)n1` [Example 332, 3-[2-(4-difluoromethoxy-3-isopropoxyphenyl)oxazol-4-yl]-1-(3-methylpyridin-2-yl)propan-1-one], the IC50 was less than 50 nM. `COc1ccc(-c2nc(CNC(=O)c3ccccc3OC)co2)cc1OCC(C)C` [Example 63, N-[2-(3-isobutoxy-4-methoxyphenyl)oxazol-4-ylmethyl]-2-methoxybenzamide] showed an IC50 of less than 50 nM. For `CCOc1cc(-c2nc(CNC(=O)c3ccccc3OCC)co2)ccc1OC(F)F` [Example 349, N-[2-(4-difluoromethoxy-3-ethoxyphenyl)oxazol-4-ylmethyl]-2-ethoxybenzamide], the IC50 was less than 50 nM. For `CCC(CC)Oc1cc(-c2nc(CCC(=O)c3ncccc3C)co2)ccc1OC` [Example 312, 3-{2-[3-(1-ethylpropoxy)-4-methoxyphenyl]oxazol-4-yl}-1-(3-methylpyridin-2-yl)propan-1-one], the IC50 was less than 50 nM. `COc1ccc(-c2nc(CNC(=O)c3ccc(F)cc3OC)co2)cc1OCC1CC1` [Example 42, N-[2-(3-cyclopropylmethoxy-4-methoxyphenyl)oxazol-4-ylmethyl]-4-fluoro-2-methoxybenzamide] was tested, and the IC50 was less than 50 nM. `C=CCOc1cc(-c2nc(CNC(=O)c3ncccc3C)co2)ccc1OC` [Example 21, N-[2-(3-allyloxy-4-methoxyphenyl)oxazol-4-ylmethyl]-3-methylpicolinamide] gave an IC50 of less than 50 nM. `CCC(CC)Oc1cc(-c2nc(CNC(=O)c3ncccc3C)co2)ccc1OC(F)F` [Example 342, N-{2-[4-difluoromethoxy-3-(1-ethylpropoxy)phenyl]oxazol-4-ylmethyl}-3-methylpicolinamide] was tested, and the IC50 was less than 50 nM. With `COc1ccc(-c2nc(CCC(=O)c3ncccc3C)co2)cc1OC(C)C` [Example 139, 3-[2-(3-isopropoxy-4-methoxyphenyl)oxazol-4-yl]-1-(3-methylpyridin-2-yl)propan-1-one] the IC50 was less than 50 nM. Work on `COc1ccc(-c2nc(CCC(=O)c3ccccc3OCC(F)F)co2)cc1OC(C)C` [Example 278, 1-[2-(2,2-difluoroethoxy)phenyl]-3-[2-(3-isopropoxy-4-methoxyphenyl)oxazol-4-yl]propan-1-one] yielded an IC50 of less than 50 nM. For `CCC(C)Oc1cc(-c2nc(CCC(=O)c3ncccc3C)co2)ccc1OC` (stereo not shown) [Example 311, 3-[2-(3-sec-butoxy-4-methoxyphenyl)oxazol-4-yl]-1-(3-methylpyridin-2-yl)propan-1-one], the IC50 was less than 50 nM. Work on `CCOc1ccccc1C(=O)CCc1coc(-c2ccc(OC)c(OCC3CCC3)c2)n1` [Example 116, 3-[2-(3-cyclobutylmethoxy-4-methoxyphenyl)oxazol-4-yl]-1-(2-ethoxyphenyl)propan-1-one] yielded an IC50 of less than 50 nM. `CCOc1cccnc1C(=O)NCc1coc(-c2ccc(OC)c(OC3CCCC3)c2)n1` [Example 29, N-[2-(3-cyclopentyloxy-4-methoxyphenyl)oxazol-4-ylmethyl]-3-ethoxypicolinamide] showed an IC50 of less than 50 nM. `CCOc1ccc(-c2nc(CCC(=O)c3ccc(F)cc3OCC)co2)cc1OCC` [Example 299, 3-[2-(3,4-diethoxyphenyl)oxazol-4-yl]-1-(2-ethoxy-4-fluorophenyl)propan-1-one] was tested, and the IC50 was less than 50 nM. Compound `CCOc1ccccc1C(=O)NCc1coc(-c2ccc(OC(F)F)c(OCC(F)F)c2)n1` [Example 382, N-{2-[4-difluoromethoxy-3-(2,2-difluoroethoxy)phenyl]-oxazol-4-ylmethyl}-2-ethoxy benzamide] has an IC50 of less than 50 nM. Work on `COc1ccc(-c2nc(CCC(=O)c3ccccc3OCC(F)F)co2)cc1OCC(F)F` [Example 284, 3-{2-[3-(2,2-difluoroethoxy)-4-methoxyphenyl]oxazol-4-yl}-1-[2-(2,2-difluoroethoxy)phenyl]propan-1-one] yielded an IC50 of less than 50 nM. Compound `CCOc1ccccc1C(=O)NCc1coc(-c2ccc(OC(F)F)c(OC(C)C)c2)n1` [Example 352, N-[2-(4-difluoromethoxy-3-isopropoxyphenyl)oxazol-4-ylmethyl]-2-ethoxybenzamide] has an IC50 of less than 50 nM. Work on `CCOc1cc(-c2nc(CCC(=O)c3ccccc3OCC(F)F)co2)ccc1OC` [Example 280, 1-[2-(2,2-difluoroethoxy)phenyl]-3-[2-(3-ethoxy-4-methoxyphenyl)oxazol-4-yl]propan-1-one] yielded an IC50 of less than 50 nM.
